Key:
[1] = target: T1, chicken W55T double-mutant α9α10 receptors (Gallus gallus, UniProt Q9I8C7+Q9PTS8, W83T/W84T); test: ACh-evoked currents, two-electrode voltage clamp in Xenopus laevis oocytes; format: cell-based; conditions: 1 or 30 mM ACh, n = 10
T1 construct: expressed in transfected cells; host or cells: Xenopus laevis oocytes (cRNA injection)
Text: (§1) cDNAs encoding Gallus gallus (chick) or Rattus norvegicus (rat) α9 and α10 nAChR subunits were subcloned into a modified pGEMHE vector for expression studies in Xenopus laevis oocytes. Capped cRNAs were in vitro transcribed from linearized plasmid DNA templates using RiboMAX Large Scale RNA Production System (Promega, Madison, WI). Mutant subunits were produced using Quick Change XL II kit (Stratagene, La Jolla, CA). Amino acid sequences of rat and chicken α9, α10, and Torpedo α1 subunits were aligned using ClustalW (EMBL-EBI, Wellcome Genome Campus, Hinxton, Cambridgeshire). Residues were numbered according to the corresponding Torpedo α1 subunit mature protein ([Karlin, 2002]).
(§2) The maintenance of Xenopus laevis and the preparation and cRNA injection of stage V and VI oocytes have been described in detail elsewhere ([Verbitsky et al., 2000]). Typically, oocytes were injected with 50 nl of RNase-free water containing 0.01–1.0 ng of cRNA (at a 1:1 molar ratio when pairwise combined) and maintained in Barth’s solution at 18°C. Electrophysiological recordings were performed 2–6 days after cRNA injection under two-electrode voltage clamp with an Oocyte Clamp OC-725B or C amplifier (Warner Instruments Corp., Hamden, CT). Recordings were filtered at a corner frequency of 10 Hz using a 900BT Tunable Active Filter (Frequency Devices Inc., Ottawa, IL). Data acquisition was performed using a Patch Panel PP-50 LAB/1 interface (Warner Instruments Corp.) at a rate of 10 points per second. Both voltage and current electrodes were filled with 3 M KCl and had resistances of ∼1 MΩ. Data were analyzed using Clampfit from the pClamp 6.1 software (Molecular Devices, Sunnyvale, CA). During electrophysiological recordings, oocytes were continuously superfused (∼15 ml/min) with normal frog saline composed of: 115 mM NaCl, 2.5 mM KCl, 1.8 mM CaCl2, and 10 mM HEPES buffer, pH 7.2. ACh was added to the perfusion solution for application. Unless otherwise indicated, the membrane potential was clamped to −70 mV. To minimize activation of the endogenous Ca^2+ sensitive chloride current ([Elgoyhen et al., 2001]), all experiments were performed in oocytes incubated with the Ca^2+ chelator 1,2-bis(2-aminophenoxy)ethane-N,N,N′,N′-tetraacetic acid (acetoxymethyl ester) (100 µM) for 3 hours before electrophysiological recordings.
(§3) Concentration-response curves were normalized to the maximal agonist response in each oocyte. The mean and S.E.M. values of the responses are represented. Agonist concentration-response curves were iteratively fitted, using Prism 5 software (GraphPad Software Inc., La Jolla, CA), with the equation: I/Imax = A^nH/(A^nH + EC50^nH), where I is the peak inward current evoked by the agonist at concentration A; Imax is the current evoked by the concentration of the agonist eliciting a maximal response; EC50 is the concentration of the agonist inducing a half-maximal current response; and nH is the Hill coefficient. Data were analyzed using Clampfit from the pClamp 6.1 software.

[2] = target: chicken α9α10W55T receptor (Gallus gallus, UniProt Q9I8C7+Q9PTS8, W83T); test: as above; format: cell-based
Text: as §1, §2, §3

[3] = target: T2, rat W55T double-mutant α9α10 receptors (Rattus norvegicus, UniProt P43144+Q9JLB5, W81T/W82T); test: as above; format: cell-based; conditions: 1 or 30 mM ACh, n = 15
T2 construct: expressed in transfected cells; host or cells: Xenopus laevis oocytes (cRNA injection)
Text: as §1, §2, §3

[4] = target: T3, rat double-mutant α9Y190Tα10Y190T receptors (Rattus norvegicus, UniProt P43144+Q9JLB5, Y216T/Y217T); test: as above; format: cell-based; conditions: 1 or 30 mM ACh, n = 8
T3 construct: expressed in transfected cells; host or cells: Xenopus laevis oocytes (cRNA injection)
Text: as §1, §2, §3

[5] = target: chicken α9W55Tα10 receptor (Gallus gallus, UniProt Q9I8C7+Q9PTS8, W84T); test: as above; format: cell-based
Text: as §1, §2, §3

[6] = tested on: Aplysia californica AChBP, CC mutant; conditions: does not abolish ACh binding; ref Hansen and Taylor, 2007; cited from earlier work

Compound: CC(=O)OCC[N+](C)(C)C [ACh, acetylcholine]
- Currents evoked by ACh [1]: failed to evoke currents
- EC50 [2]: 334 ± 13 µM
- Imax (maximal evoked current) [2]: 159 ± 32 nA
- Currents evoked by ACh [3]: failed to evoke currents
- Response to ACh [4]: failed to respond
- EC50 [5]: 357 ± 75 µM
- Imax (maximal evoked current) [5]: 59 ± 8 nA
- Decrease in affinity on mutation of the CC [6]: 10 fold
